For eight molecules, GI50 and TGI results are on record in PubChem BioAssay (NCI).

Some test systems named below: A549 NSCLC; HCT-116 colon; KM12 colon; M14 melanoma; MALME-3M melanoma; SR leukemia; T-47D breast; TK-10 renal; UACC-257 melanoma; NCI-H226 lung.
Common to all, as to assay: inhibition of tumour cell growth, NCI panel, 48 h

Values joined by “and” are separate entries in the source; they are usually repeats but may differ in a detail not shown here. Equal entries are not always repeated.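 Dose response: 5 concentrations. Exposure: 48 h. Format: 96-well plates. Endpoint: linear interpolation; highest concentration if not reached. GI50 is the concentration that inhibits growth by half. TGI is the concentration that stops growth completely.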

For the molecule `CC(=O)NC1C(O[C@H]2C[C@H]3[C@@H]4CC=C5C[C@@H](O)CC[C@]5(C)[C@H]4CC[C@]3(C)[C@H]2[C@H](C)C(=O)CCC(C)C)OCC(O)C1O` (stereo not given in full), the GI50 is 5.45 µM in the experiment on A549 NSCLC; 1.39 µM in the experiment with HCT-116 colon; 6.27 µM with KM12 colon; 0.732 µM in the experiment with M14 melanoma; 2.33 µM in the experiment with MALME-3M melanoma; 1.56 µM with SR leukemia. Further, the values for the GI50 in the experiment on T-47D breast, in the experiment on TK-10 renal and with UACC-257 melanoma were 2.28 µM, 13.9 µM and 1.4 µM, respectively. Besides, the TGI in the experiment on A549 NSCLC was 15.3 µM; in the experiment on HCT-116 colon it was 5.82 µM; with KM12 colon it was more than 42.5 µM; with M14 melanoma, 1.57 µM; in the experiment with MALME-3M melanoma, 9.78 µM; in the experiment with SR leukemia, 22.8 µM. The TGI was 30.9 µM with T-47D breast, more than 42.5 µM in the experiment on TK-10 renal and 3.55 µM with UACC-257 melanoma.

As to `Cc1cc(Br)c(NC(=O)c2c(-c3c(Cl)cccc3Cl)noc2C)c(Br)c1`, the GI50 was more than 100 µM with A549 NSCLC; more than 100 µM in the experiment on HCT-116 colon; more than 100 µM in the experiment with KM12 colon; more than 100 µM in the experiment on M14 melanoma; more than 100 µM with MALME-3M melanoma; 82.5 µM in the experiment on NCI-H226 lung. In addition, the GI50 with SR leukemia, in the experiment on T-47D breast, in the experiment with TK-10 renal and in the experiment on UACC-257 melanoma was more than 100 µM in each case. Moreover, the TGI in the experiment with A549 NSCLC, in the experiment with HCT-116 colon, in the experiment with KM12 colon, in the experiment on M14 melanoma, with MALME-3M melanoma and with NCI-H226 lung was more than 100 µM each time. The TGI in the experiment with SR leukemia, with T-47D breast, in the experiment on TK-10 renal and in the experiment with UACC-257 melanoma was more than 100 µM each time.

`COC12C(COC(=O)NCCO)C3=C(C(=O)C(C)=C(N)C3=O)N1CC1NC12` (stereo not given): the GI50 is 29.7 µM with A549 NSCLC; 35.1 µM with HCT-116 colon; 61.7 µM with KM12 colon; 49.9 µM in the experiment with M14 melanoma; 45.3 µM in the experiment with MALME-3M melanoma; 30.2 µM in the experiment on NCI-H226 lung. The GI50 is 66.8 µM in the experiment with TK-10 renal and 79.1 µM in the experiment on UACC-257 melanoma. The TGI in the experiment on A549 NSCLC is more than 264 µM; with HCT-116 colon it was 114 µM; in the experiment with KM12 colon, 177 µM; with M14 melanoma, more than 264 µM; in the experiment on MALME-3M melanoma, 64 µM and 101 µM; with NCI-H226 lung, 71 µM and 150 µM. The TGI in the experiment with SR leukemia is more than 264 µM; with T-47D breast, more than 264 µM; with TK-10 renal, more than 264 µM; with UACC-257 melanoma, 238 µM.

Turning to `COc1ccc(C(O)c2cc3c(N)c(C(=O)Nc4cccc5ccccc45)sc3nc2C)cc1` (stereo not given), the GI50 was 0.381 µM with A549 NSCLC; 0.318 µM with HCT-116 colon; 0.328 µM in the experiment on KM12 colon; 0.307 µM with M14 melanoma; 0.544 µM in the experiment on MALME-3M melanoma; 0.416 µM in the experiment on NCI-H226 lung. For the same molecule, the GI50 in the experiment on SR leukemia was 0.141 µM; in the experiment on T-47D breast, more than 100 µM. For the same molecule, the TGI in the experiment with A549 NSCLC is more than 100 µM; in the experiment on HCT-116 colon it was more than 64 µM; in the experiment with M14 melanoma, more than 37.7 µM; in the experiment with MALME-3M melanoma it was more than 60.8 µM; in the experiment with NCI-H226 lung, more than 88 µM; in the experiment on T-47D breast it was more than 100 µM. In addition, the TGI is more than 100 µM in the experiment on TK-10 renal and more than 32.5 µM in the experiment on UACC-257 melanoma.

Consider `OCC1CC[N-]CC1.OCC1CC[N-]CC1.[Cl][Pt+2]([Cl])([Cl])[Cl]`, for which the GI50 in the experiment on A549 NSCLC is 52.7 µM; in the experiment on HCT-116 colon, 25.6 µM; with KM12 colon, 28.9 µM; in the experiment on M14 melanoma, 22.2 µM; with MALME-3M melanoma, 36.4 µM; in the experiment on NCI-H226 lung, 39.5 µM. Further, the GI50 in the experiment with SR leukemia was 8.08 µM; with T-47D breast, 15.2 µM; in the experiment with TK-10 renal it was 37.3 µM; with UACC-257 melanoma, 31 µM. Further, the TGI with HCT-116 colon came to 86.5 µM; in the experiment with KM12 colon, 77.3 µM; with M14 melanoma it was 65 µM; with T-47D breast, 58.1 µM.

For `Nc1nc(=S)c2ncn(C3OC(COP(=O)(O)O)C(O)C3O)c2[nH]1` (stereo not given), the GI50 with A549 NSCLC is 4.69 µM; in the experiment with HCT-116 colon, 0.5 µM; in the experiment on KM12 colon, 3.02 µM; in the experiment on M14 melanoma, 0.503 µM; with MALME-3M melanoma, 1.81 µM; in the experiment on NCI-H226 lung it was 9.9 µM. For the same molecule, the GI50 in the experiment with SR leukemia is 0.268 µM; in the experiment with T-47D breast it was 0.541 µM; with TK-10 renal, 1.89 µM; with UACC-257 melanoma, 4.57 µM. Moreover, the TGI is more than 100 µM in the experiment on A549 NSCLC; more than 100 µM in the experiment with HCT-116 colon; more than 100 µM in the experiment on KM12 colon; 32.8 µM with M14 melanoma; 75 µM in the experiment on MALME-3M melanoma; more than 100 µM in the experiment on NCI-H226 lung. Also, the TGI in the experiment on SR leukemia, in the experiment with T-47D breast, in the experiment on TK-10 renal and in the experiment with UACC-257 melanoma was more than 100 µM throughout.

As to `C(=Nc1nc(SCc2ccccc2)nc2[nH]ncc12)c1cccs1`, the GI50 in the experiment with A549 NSCLC is 60 µM; with KM12 colon, 36.7 µM; in the experiment on M14 melanoma it was 34.7 µM; in the experiment on MALME-3M melanoma, 42.9 µM; in the experiment on NCI-H226 lung, 45.7 µM; with SR leukemia it was 18.7 µM. For the same molecule, the results for the GI50 with T-47D breast, with TK-10 renal and in the experiment with UACC-257 melanoma were 21.9 µM, 44.3 µM and 53.7 µM, respectively. Also, the TGI in the experiment on A549 NSCLC was more than 100 µM; with KM12 colon, more than 100 µM; in the experiment with M14 melanoma, more than 100 µM; in the experiment with MALME-3M melanoma, more than 100 µM; with NCI-H226 lung it was more than 100 µM; in the experiment on SR leukemia, 65.3 µM. In addition, the figures for the TGI with T-47D breast, in the experiment with TK-10 renal and in the experiment with UACC-257 melanoma were 52.8 µM, more than 100 µM and more than 100 µM, respectively.

On to `CNCc1ccc(-c2cc(-c3nc(-c4ccc(S(=O)(=O)C(C)C)cc4)cnc3N)on2)cc1`, for which the GI50 in the experiment with HCT-116 colon is 1.08 µM; in the experiment on KM12 colon, 1.87 µM; in the experiment on M14 melanoma, 1.18 µM; with NCI-H226 lung it was 18.8 µM; in the experiment with SR leukemia it was 0.132 µM; in the experiment with T-47D breast, 15.7 µM. Moreover, the results for the GI50 in the experiment on TK-10 renal and in the experiment with UACC-257 melanoma were 10.2 µM and 3.05 µM, respectively. For the same molecule, the TGI came out at 2.3 µM in the experiment with HCT-116 colon; 12.6 µM in the experiment on KM12 colon; 2.6 µM with M14 melanoma; 44.1 µM in the experiment with NCI-H226 lung; 2.84 µM with SR leukemia; 37.8 µM with T-47D breast. Further, the TGI in the experiment with TK-10 renal was found to be 22.3 µM; in the experiment on UACC-257 melanoma, 9.35 µM.
